These are literature values, as cited in patent publication US7928112B2, “Substituted 5,6,7,8-tetrahydropyrido[4,3-D]pyrimidines as dipeptidyl peptidase-IV inhibitors for the treatment or prevention of diabetes” (Merck Sharp & Dohme Corp., priority 2006, dated 2011).

In data set [1] the target is T1, DPP-4 (Rattus norvegicus, UniProt P14740).
T1 construct: host or cells: rats (in vivo)
As to conditions: rats; survival doubled from day 7 to day 14.

Data set [2] addresses T2, DPP-4 (Mus musculus, UniProt P28843).
T2 construct: host or cells: mouse (in vivo)
As to conditions: cyclophosphamide-induced neutropenia.

Data set [3] deals with T3, DPP-4 (Homo sapiens, UniProt P27487).
T3 construct: GRF is rapidly degraded in plasma to GRF[3-44]; from tissue; host or cells: plasma

Structures are written as SMILES.

T1 sequence (P14740 whole entry): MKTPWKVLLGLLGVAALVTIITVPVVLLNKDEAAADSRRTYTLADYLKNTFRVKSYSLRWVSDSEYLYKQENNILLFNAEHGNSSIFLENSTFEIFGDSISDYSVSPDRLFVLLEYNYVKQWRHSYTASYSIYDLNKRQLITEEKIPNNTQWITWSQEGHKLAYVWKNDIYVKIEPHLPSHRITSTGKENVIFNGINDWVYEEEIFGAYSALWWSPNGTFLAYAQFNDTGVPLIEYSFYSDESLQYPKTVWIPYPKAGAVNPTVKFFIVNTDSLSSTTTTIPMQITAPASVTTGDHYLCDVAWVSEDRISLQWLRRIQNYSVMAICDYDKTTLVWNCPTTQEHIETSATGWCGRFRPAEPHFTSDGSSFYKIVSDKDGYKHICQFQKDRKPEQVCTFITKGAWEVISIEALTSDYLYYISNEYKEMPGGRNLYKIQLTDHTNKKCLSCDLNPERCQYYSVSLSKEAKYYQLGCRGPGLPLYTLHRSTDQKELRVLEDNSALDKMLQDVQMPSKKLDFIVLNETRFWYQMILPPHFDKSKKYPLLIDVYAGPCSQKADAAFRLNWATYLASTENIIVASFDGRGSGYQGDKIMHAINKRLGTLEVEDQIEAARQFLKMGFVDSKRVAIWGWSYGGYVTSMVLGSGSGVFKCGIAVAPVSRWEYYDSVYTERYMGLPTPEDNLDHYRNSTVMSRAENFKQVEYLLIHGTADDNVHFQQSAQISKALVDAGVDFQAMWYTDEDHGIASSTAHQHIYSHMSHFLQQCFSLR
T3 sequence (P27487 39-766 limits assumed, species assumed): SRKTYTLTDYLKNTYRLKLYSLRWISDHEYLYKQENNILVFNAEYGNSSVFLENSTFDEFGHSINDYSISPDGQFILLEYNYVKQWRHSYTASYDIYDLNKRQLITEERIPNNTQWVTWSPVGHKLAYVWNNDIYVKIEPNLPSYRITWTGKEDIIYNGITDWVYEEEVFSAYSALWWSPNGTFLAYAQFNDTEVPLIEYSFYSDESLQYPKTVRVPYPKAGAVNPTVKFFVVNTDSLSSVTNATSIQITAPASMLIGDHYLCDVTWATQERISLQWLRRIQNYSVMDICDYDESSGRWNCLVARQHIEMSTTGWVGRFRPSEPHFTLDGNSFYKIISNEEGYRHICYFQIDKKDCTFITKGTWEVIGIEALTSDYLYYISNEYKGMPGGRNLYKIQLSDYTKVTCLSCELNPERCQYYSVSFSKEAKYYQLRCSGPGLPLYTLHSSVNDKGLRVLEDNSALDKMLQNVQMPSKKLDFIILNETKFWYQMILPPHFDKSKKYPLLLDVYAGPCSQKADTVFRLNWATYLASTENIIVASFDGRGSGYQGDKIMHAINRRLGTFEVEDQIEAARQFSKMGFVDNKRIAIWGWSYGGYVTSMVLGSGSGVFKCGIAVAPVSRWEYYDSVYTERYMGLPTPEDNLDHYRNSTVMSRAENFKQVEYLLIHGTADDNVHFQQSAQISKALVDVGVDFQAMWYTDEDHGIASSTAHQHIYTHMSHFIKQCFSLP
T2 sequence (P28843 whole entry): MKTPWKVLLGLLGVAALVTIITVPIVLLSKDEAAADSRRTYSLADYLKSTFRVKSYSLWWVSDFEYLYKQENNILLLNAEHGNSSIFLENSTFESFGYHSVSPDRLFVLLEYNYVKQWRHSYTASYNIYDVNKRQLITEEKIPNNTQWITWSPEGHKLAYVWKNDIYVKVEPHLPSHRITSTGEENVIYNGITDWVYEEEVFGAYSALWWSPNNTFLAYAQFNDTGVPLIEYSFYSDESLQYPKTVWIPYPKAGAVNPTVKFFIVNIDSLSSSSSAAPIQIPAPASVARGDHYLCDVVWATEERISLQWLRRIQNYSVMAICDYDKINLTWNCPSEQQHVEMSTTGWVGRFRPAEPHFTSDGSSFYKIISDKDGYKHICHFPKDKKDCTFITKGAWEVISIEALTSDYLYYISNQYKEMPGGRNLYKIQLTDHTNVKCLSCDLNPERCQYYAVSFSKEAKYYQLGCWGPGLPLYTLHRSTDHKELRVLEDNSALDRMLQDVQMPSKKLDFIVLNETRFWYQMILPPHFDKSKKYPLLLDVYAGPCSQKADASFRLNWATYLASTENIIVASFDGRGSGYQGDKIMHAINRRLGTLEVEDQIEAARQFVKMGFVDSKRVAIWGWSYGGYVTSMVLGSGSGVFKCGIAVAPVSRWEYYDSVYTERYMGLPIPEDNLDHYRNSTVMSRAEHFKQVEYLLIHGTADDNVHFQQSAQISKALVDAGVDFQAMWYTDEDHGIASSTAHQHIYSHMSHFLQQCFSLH

Regarding `CC(C)N1CCC(c2ccccc2)(c2ccccc2)CC1` [Prodipine, Pro-Pro-diphenyl-phosphonate], the cardiac allograft survival at DPP-4 [1] is listed as 14 day.

Take `CC(C)[C@H](N)C(=O)N1CCC[C@H]1B(O)O` [Val-Boro-Pro]: on DPP-4 [2], the hematopoiesis result was “stimulated hematopoiesis”.

For `CC[C@H](C)[C@H](N)C(=O)N1CCC[C@H]1C(=O)N[C@H](C(=O)O)[C@@H](C)CC` [diprotin A], the “degradation of GRF to GRF[3-44] in plasma” value on DPP-4 [3] was “prevented”.
